The values below come from patent publication US5932742A, “Arylsulfonylimidazolone derivatives as an antitumor agent” (priority 1996, dated 1999).

Data set [1] has as its system A549 (ATCC CCL 185): human lung carcinoma. Kind of data set: In vitro antitumor activity, MTT assay, A549. In kind it is cell-based. Particulars: for IC50: Homo sapiens, A549, 48 h. An outline of the steps: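 A549 cells in RPMI 1640 with 10% FBS, 10,000 cells/well, pre-cultured 24 hrs, then exposed 48 hrs at 37° C to compound at 20 to 0.00128 μg/ml final (5-fold steps, DMSO below 0.5%). MTT added for 4 hrs, formazan dissolved in DMSO and read at 540nm; IC50 by linear regression of % of control.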

In data set [2] the test system is SK-OV-3 (ATCC HTB 77): human ovarian adenocarcinoma. Kind of data set: In vitro antitumor activity, MTT assay, SK-OV-3. Type of data set: cell-based. The following applies: for IC50: Homo sapiens. An outline of the steps: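 Cells seeded at 10,000 per well, grown 24 h, then exposed 48 h at 37 °C to compound at final 20 to 0.00128 μg/ml (5-fold dilutions, DMSO below 0.5%). MTT added for 4 h, formazan dissolved in DMSO, absorbance read at 540 nm; IC50 estimated by linear regression.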

For data set [3], the system named is K562 (ATCC CCL 243): human chronic myelogenous leukemia. Kind of data set: In vitro antitumor activity, MTT assay, K562. In kind it is cell-based. Particulars: for IC50: Homo sapiens, K562, 48 h. An outline of the steps:
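K562 cells (10,000/well) pre-cultured 24 hrs, then exposed 48 hrs at 37° C. to serially 5-fold diluted compound, final 20 μg/ml to 0.00128 μg/ml, DMSO below 0.5%. MTT added 4 hrs; formazan dissolved in DMSO, A540 read. Cytotoxicity as test/control absorbance; IC50 by linear regression.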

Data set [4] relates to P388 murine leukemia cells. Kind of data set: In vivo antitumor activity against P388 murine leukemia cell. On the set-up: species or system BDF1 mouse. Particulars: once per 2 days for 10 days, median survival time. How it is done: In vivo antitumor activity against P388 murine leukemia cell
P388 murine leukemia cells were injected into BDF1 mouse intraperitoneally and grown in the peritoneal cavity. The P388 cells were periodically exudated and reinjected intraperitoneally into mouse for subculture.
The cells were exudated, washed, resuspended in saline (2×10^7 cells/ml), and then injected intraperitoneally again into BDF1 mouse (2×10^6 cells/0.1 ml).
Test compound dissolved in appropriate vehicle was administered intraperitonealy or orally into the mouse which was implanted with P388 murine leukemia tumor cells in the frequency of once per 2 days for 10 days. The vehicle was administered into the mouse of control group. Then, the number of live animals were daily checked to estimate the median survival time (MST).
T/C ratio(%) of each test compound was calculated according to the following formula, and the test results are shown in Table 6.
T/C(%)=(MST of test group.div.MST of control group)×100

For data set [5], the system named is Colon 26 murine colon cancer cell. Kind of data set: In vivo antitumor activity against Colon 26 murine colon cancer cell. Particulars: 65 mg/kg p.o., once per 2 days for 10 days; tumor weight. Also noted: species or system Balb/C mouse. How it is done:
In vivo antitumor activity against Colon 26 murine colon cancer cell
Colon 26 murine cancer cells were injected into Balb/C mouse intradermally and grown in mouse abdominal skin to a solid tumor. The Colon 26 tumors were periodically excised from the mouse, digested with an enzyme mixture containing collagenase and DNase, and then intradermally reinjected into mouse for subculture.
The cells were washed, resuspended in saline (5×10^6 cells/ml) and inoculated (5×10^5 cells/0.1 ml) intradermally to abdominal part of Balb/C mouse of which hair was removed in advance. Each test compound was dissolved in a solvent mixture of 60% propylene glycol(PG), 40% cremophor RH60(CP), and distilled water(DW) in the volume ratio of 30:20:50. When the size of tumor reached at appropriate level, the test compound was administered orally into the mouse which was implanted with colon 26 tumor cells in the frequency of once per 2 days for 10 days. The vehicle was also administered into the mouse of control group. The major and minor axis of tumor in each group were regularly measured by vernier calipers to estimate the increase of the tumor volume. Tumor volume was calculated on the basis of the following formula
Tumor volume(mm^3)=(1/2)×[length of major axis(mm)]×[length
When the tumor volume of the control group reached at about 1500 mm^3, the test animals were sacrificed by cervical dislocation and tumor was carefully excised and weighed. The inhibition rate of tumor growth (%) of each test compound was calculated as follows: […]
group.div.Tumor weight of control group)]

The nature of data set [6]: Acute toxicity test (LD50). Type of data set: in vivo. The following applies: in vivo, po; gastric lavage, male Wistar rat; probit method; 95% confidence interval in parenthesis on the next line. The procedure: (§1) Acute toxicity test (LD50)
(§2) Male Wistar Rat (Charles River Japan, ca, 6 weeks old) was used as test animal and sodium-carboxymethylcellulose (Na-CMC, Sigma Chemical, U.S.A.) was used as a vehicle control. Compounds 57 and 65 were suspended in 0.5% Na-CMC, respectively, before dosing. Test compounds were administered by gastric lavage with the dosage of 400, 550, 700, 850 and ^1000 mg/kg. Control group was treated only with 0.5% Na-CMC. Each group was consisted of 5 rats.

A further data set deals with Male Wistar Rat. Kind of data set: Acute toxicity test (LD50). Particulars: gastric lavage. Type of data set: in vivo. The procedure: as §1, §2
Data set [7] has as its system Colo205 (ATCC CCL 222): human colon adenocarcinoma. Kind of data set: In vitro antitumor activity, MTT assay, Colo205. Particulars: for IC50: Homo sapiens. Type of data set: cell-based. An outline of the steps:
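Colo205 cells in RPMI 1640/10% FBS were exposed 48 h at 37 °C to 5-fold serial dilutions, final 20 to 0.00128 µg/ml, DMSO below 0.5%. MTT added for 4 h, formazan dissolved in DMSO, A540 read versus medium control; IC50 by linear regression.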

Data set [8] concerns solid tumors and human tumor xenogafts. The following applies: J. Med. Chem., 1990, 33, 2393; cited from earlier work.
The conditions of data set [9]: literature; cited from earlier work.
The mark [10] stands for this setting: COLO 205, Table 5, 48 hrs, read-out: IC50 (Colo205).

In brackets after ≈: the same amount, converted by molar mass. Entries after “also recorded” stand apart in the source; their conditions may differ. Where a name gives a salt, the structure may show the parent alone. Read-outs that look alike come from different tables or passages of the source.

For the compound `Nc1ccc(C(=O)N2CCc3cc(S(=O)(=O)N4CC(c5ccccc5)NC4=O)ccc32)cc1` (stereo not shown) [Example 57, 4-phenyl-1-[N-(4-aminobenzoyl)indoline-5-sulfonyl]-4,5-dihydro-2-imidazolone.HCl], the IC50 in [1] (Table 4) came to 0.09 µg/mL; in data set [2] (SK-OV-3, Table 4, 48 hrs) it was 0.572 µg/mL; in [3] (Table 4, read-out: IC50 (K562)) it was 0.203 µg/mL. Besides, the “T/C rate (%)” value in data set [4] (50 mg/kg p.o.) was determined as 133.3%; in data set [4] (65 mg/kg p.o.), 146.0%; in [4] (100 mg/kg i.p.), 166.7%; in [4] (100 mg/kg p.o.) it was 175.0%. Further, in data set [5], the “Inhibition rate of tumor growth (%)” value is 67.4%. Also, the LD50 in data set [6] came out at 644 mg/kg. The “Acute toxicity, animals per group (dead/total)” value with Male Wistar Rat (400 mg/kg) is reported as 0/5; with Male Wistar Rat (550 mg/kg), 1/5; with Male Wistar Rat (700 mg/kg), 3/5; in the data set with Male Wistar Rat (850 mg/kg), 5/5; in the data set on Male Wistar Rat (1000 mg/kg), 5/5.

Turning to `Nc1ccc(C(=O)N2CCc3cc(S(=O)(=O)N4C[C@H](c5ccccc5)NC4=O)ccc32)cc1` [Example 65, (S)-(+)-4-phenyl-1-[N-(4-aminobenzoyl)indoline-5-sulfonyl]-4,5-dihydro-2-imidazolone.HCl], the IC50 was determined as 0.105 µg/mL in [1] (Table 5); 0.268 µg/mL in data set [7] (setting [10]); 0.062 µg/mL in data set [2] (SK-OV-3, Table 5, 48 hrs); 0.829 µg/mL in data set [3] (Table 5, read-out: IC50 (K562)). Also, the “T/C rate (%)” value in data set [4] (65 mg/kg p.o.) is 138.5%. For the same compound, in data set [5], the “Inhibition rate of tumor growth (%)” value was 69.2%.

`Cl.NC(Cc1ccccc1)C(=O)Nc1ccc(C(=O)N2CCc3cc(S(=O)(=O)N4C[C@H](c5ccccc5)NC4=O)ccc32)cc1` (stereo partly drawn) [Example 68, (S)-(-)-4-phenyl-1-[N-{4-(2-amino-3-phenyl-propanoyl)aminobenzoyl}indoline-5-sulfonyl]-4,5-dihydro-2-imidazolone.HCl]: in data set [1] (Table 5, 48 hrs), the “IC50 (A549)” value turned out to be 0.083 µg/mL. Besides, the “IC50 (Colo205)” value in data set [7] (Table 5, 48 hrs) came out at 0.598 µg/mL. Moreover, in data set [2] (Table 5, 48 hrs), the “IC50 (SK-OV-3)” value turned out to be 0.137 µg/mL. For the same compound, in data set [3] (Table 5, 48 hrs), the “IC50 (K562)” value was 0.561 µg/mL. Besides, the “Inhibition rate of tumor growth (%)” value in [5] was determined as 45.3%.

As to `O=C(Nc1ccc(Cl)cc1)NS(=O)(=O)c1ccc2c(c1)CCC2` [Sulofenur, reference compound], the IC50 turned out to be 12.8 µg/mL (≈ 36.4 µM) in [1] (Table 1); 12.8 µg/mL (≈ 36.4 µM) in [1] (Table 3); 12.8 µg/mL (≈ 36.4 µM) in data set [1] (Table 4); 12.8 µg/mL (≈ 36.4 µM) in data set [1] (Table 5); 48.9 µg/mL (≈ 139 µM) in data set [7] (COLO 205, Table 3, 48 hrs, read-out: IC50 (Col205)); 48.9 µg/mL (≈ 139 µM) in data set [7] (setting [10]). Moreover, the IC50 worked out at 78.2 µg/mL (≈ 223 µM) in data set [2] (SK-OV-3, Table 5, 48 hrs); 17.6 µg/mL (≈ 50.1 µM) in data set [3] (Table 3, read-out: IC50 (K562)); 17.6 µg/mL (≈ 50.1 µM) in [3] (Table 4, read-out: IC50 (K562)); 17.6 µg/mL (≈ 50.1 µM) in data set [3] (Table 5, read-out: IC50 (K562)). The antitumor activity entry in data set [8] was “exhibits potent antitumor activity upon solid tumors; also recorded: exceptionally broad spectrum of activity upon solid tumors and human tumor xenogafts”. Further, in data set [9], the side effects result was “does not produce serious side effects including myelosuppression, nausea, vomiting, alopecia, mucositis, and hepatotoxicity; also recorded: only shows minor side effects such as anemia or methemoglobinemia”.
